Results on 2 compounds are retold here after PMC10789121, “Amine Basicity of Quinoline ATP Synthase Inhibitors Drives Antibacterial Activity against Pseudomonas aeruginosa” (ACS Medicinal Chemistry Letters, 2023).

The target of data set [1] is T1, PA ATP synthase (Pseudomonas aeruginosa, UniProt Q9HT15).
T1 construct: a whole operon plasmid that expresses; made in house; host or cells: Escherichia coli DK8 (K-12 strain lacking the unc operon) transformed with pASH20; used as inverted membrane vesicles, not purified
On the set-up: method as in PMID 37922420. The note with it: previously determined; cited from earlier work.

The test system of data set [2] is PΔ6 (efflux knockout strain of PA). The arrangement: method as in PMID 37922420. Particulars: cited from earlier work.
The subject of data set [3] is BAA 2109 (MDRPA clinical isolate). The arrangement: method as in PMID 37922420. The note with it: cited from earlier work.
Data set [4] relates to PA electron transport chain. On the set-up: method as in PMID 37922420. The note with it: previously determined; cited from earlier work.
Data set [5] concerns BAA 2110 (MDRPA clinical isolate). On the set-up: method as in PMID 37922420. The note with it: cited from earlier work.
For data set [6], the system named is BAA 2108 (MDRPA clinical isolate). The arrangement: method as in PMID 37922420. Particulars: cited from earlier work.
Data set [7] has as its system PA 9027. The arrangement: method as in PMID 37922420. Particulars: cited from earlier work.
The nature of data set [8]: Solubility in the assay medium. Format: physicochemical. Particulars: assay medium of the ATP synthesis inhibition assay; read-out: Solubility in the assay medium (poor/insoluble above this concentration).
For data set [9], the system named is EC electron transport chain. In words: Electron transport activity (ACMA fluorescence quenching) in E. coli DK8 pASH20 inverted membrane vesicles. It is filed as biochemical, Escherichia coli. On the procedure: (§1) Determination of electron transport activity. As previously described,11 inverted membrane vesicles from PA 9027 or E. coli DK8 pASH20 were added to HMK buffer containing 0.3 µg/mL 9-amino-6-chloro-2-methoxyacridine (ACMA) and 0-64 µg/mL test compound in DMSO. After measurement of baseline ACMA fluorescence for 60 s, redox-driven H+ pumping was initiated by addition of NADH to 0.8 mM, and fluorescence quenching was monitored for 120 s before addition of nigericin to 0.5 µg/mL. Relative activity is reported as the minimum fluorescence value normalized to the maximum fluorescence value following addition of nigericin.

The target of data set [10] is T1, PA ATP synthase. In words: Inhibition of NADH-driven PA ATP synthesis activity in DK8/pASH20 inverted membrane vesicles (end-point luciferin/luciferase assay). Format: biochemical. The note with it: <4 μg/mL; IC50 could not be determined.
Data set [11] concerns PA electron transport chain. The data set is described as follows: Electron transport activity (ACMA fluorescence quenching) in PA 9027 inverted membrane vesicles. Format: biochemical, Pseudomonas aeruginosa.
From the text: The assay for PA ATP synthase activity in EC DK8/pASH20 membrane vesicles requires a functional EC ETC, so potent inhibition of the EC ETC by any compound would interfere with the determination of its IC50 for PA ATP synthase. […] Furthermore, potent inhibition of PA ETC could be an alternative mechanism of action for the antibacterial activity of the current series.
as §1

SMILES strings stand for the structures. Values after ≈ are worked out from the molar mass of the structure shown.

A word on the IC50: it is the midpoint of a concentration-inhibition curve.

As for `CN(C)Cc1ccc(CNCc2cc3ccccc3nc2SCc2ccccc2)cc1` [Compound 2], the IC50 in data set [1] was roughly 4.68 µM. Further, the “MIC PΔ6” value in data set [2] was 16 µg/mL (≈ 37.4 µM). In addition, the “MIC BAA 2109” value in [3] was greater than 128 µg/mL. For the same compound, the “PA ETC IC50” value in data set [4] is 27 µg/mL. For the same compound, in data set [5], the “MIC BAA 2110” value was greater than 128 µg/mL. The “MIC BAA 2108” value in [6] was 64 µg/mL (≈ 150 µM). Also, in [7], the “MIC PA 9027” value is greater than 128 µg/mL.

Take `CN(C)c1ccc(CNCc2cc3ccccc3nc2SCc2ccccc2)cc1` [Compound 12]: in [8], the solubility was no more than 16 µg/mL. Besides, the “EC ETC inhibition (in words)” value in [9] was “displayed some PA and EC ETC”. In addition, the “PA ATP synthase inhibition (in words)” value in data set [10] is recorded as “potent PA ATP synthase inhibition at low concentrations”. In addition, in data set [11], the “PA ETC inhibition (in words)” value is “displayed some PA and EC ETC”.
